Measured values: patent publication US9029327B2, “Vaccine” (Affiris AG, priority 2009, dated 2015)
No end group written: not given here.

Columns and labels:
[1] = % of the activity of Ang II; cited from earlier work
Ang II peptide = experiment: peptide based ELISA of sera from vaccinated mice: binding capacity/titers against the Ang II peptide; type: in vivo; conditions: BALB/c mice, peptide-KLH, Alum; for reactivity/titer of induced sera against Ang II: ELISA titer ODmax/2, compared with sera evoked by Ang II peptide (set as 100%)
Protocol: (§1) In each Figure, on the X-axis sera derived from animals immunized with indicated peptides are listed. On the Y-axis relative titers of induced sera are shown. Titers derived from Ang II treated animals were set as 100%. Titers were calculated as the sera dilution giving half-maximal binding (i.e. ODmax/2). White bars indicate titers against the peptides that were used for vaccination while black bars represent titers against the Ang II peptide.
Therefore, in a first set of experiments each position in the Ang II sequence was systematically replaced by amino acids having similar or different features (see Table 1 for position 2). Subsequently all these peptides were chemically linked via an additional N-terminal cysteine to the protein carrier keyhole limpet haemocyanin (KLH) and administrated to mice (BALB/c) together with Alum as adjuvant. Sera from vaccinated mice were used to analyze the immunogenicity of indicated peptides. For this purpose a peptide based ELISA assay was used to define sera titers against the injected peptide (i.e. Ang II peptide variants, VARIOTOPEs) as well as to define the binding capacity of the obtained sera against the Ang II peptide.
In the Figures (FIGS. 1 to 8 for position 1 to position 8) the results derived from these experiments are shown. On the X-axis sera derived from animals immunized with indicated peptides are listed. On the Y-axis relative titers of induced sera are shown. Titers derived from Ang II treated animals were set as 100%. Titers were calculated as the sera dilution giving half-maximal binding (i.e. ODmax/2). White bars indicate titers against the peptides that were used for vaccination while black bars represent titers against the Ang II peptide.
(§2) All peptides listed in Table 2 were again chemically linked via the N-terminus to KLH adsorbed to Alum and injected s.c. into experimental animals (BALB/c mice). Sera were analyzed by ELISA and antibody responses induced by the peptide variants were compared to that one induced by the original peptide.

[2] = test system: injected peptide (Ang II peptide variants, VARIOTOPEs); experiment: peptide based ELISA of sera from vaccinated mice: titers against the injected peptide; type: in vivo; conditions: BALB/c mice, peptide linked via N-terminal cysteine to KLH, Alum; ELISA titer ODmax/2, compared with Ang II treated animals (set as 100%)
Protocol: as §1
Therefore, in a first set of experiments each position in the Ang II sequence was systematically replaced by amino acids having similar or different features (see Table 1 for position 2). Subsequently all these peptides were chemically linked via an additional N-terminal cysteine to the protein carrier keyhole limpet haemocyanin (KLH) and administrated to mice (BALB/c) together with Alum as adjuvant. […]
In the Figures (FIGS. 1 to 8 for position 1 to position 8) the results derived from these experiments are shown. […] Titers were calculated as the sera dilution giving half-maximal binding (i.e. ODmax/2). […]
as §2

Substance | reactivity/titer of induced sera against Ang II (Ang II peptide) | other results
Ang IV | – | activity relative to Ang II [1]: approximately 40%
C-DAVYIAAA (CDAVYIAAA; also: C-terminal modification) | diminished reactivity | –
C-DAVYIAAF (CDAVYIAAF; also: C-terminal modification) | diminished reactivity | sera titer against the injected peptide [2]: lower compared to the titers induced by the other antigens
C-DAVYIAPF (CDAVYIAPF; also: C-terminal modification) | diminished reactivity | –
C-DRAAAHAF (CDRAAAHAF; also: C-terminal modification) | diminished reactivity | –
C-DRVYAAPF (CDRVYAAPF; also: C-terminal modification) | diminished reactivity | –
C-DRVYIHAA (CDRVYIHAA; also: C-terminal modification) | diminished reactivity | –
peptide variant with G on position 1: Ang II peptide CDRVYIHPF with G on position 1, KLH-linked; compare GRVYIHPF (SEQ ID NO:6) | – | sera titer against the injected peptide [2]: almost twice as high; increase of reactivity against Ang II (Ang II peptide; versus sera of Ang II treated animals): ~50%
